ChEMBL document CHEMBL6153040, “Discovery of the salicylaldehyde-based compound DDO-02267 as a lysine-targeting covalent inhibitor of ALKBH5” (Eur J Med Chem, 2025)
Active and inactive are the calls of the source. No cut-off for these calls is given here.

Assays:
[1] = molecular target: T1, RNA demethylase ALKBH5 (Homo sapiens, UniProt Q6P6C2); test: Inhibition of ALKBH5 (66 to 292 residues) (unknown origin) extracted from Escherichia coli BL21 (DE3) cells using m6A ssDNA as substrate measured after 6 hrs by fluorescence polarization assay
Target sequence in this assay (Q6P6C2 whole entry, the tested form may be a part): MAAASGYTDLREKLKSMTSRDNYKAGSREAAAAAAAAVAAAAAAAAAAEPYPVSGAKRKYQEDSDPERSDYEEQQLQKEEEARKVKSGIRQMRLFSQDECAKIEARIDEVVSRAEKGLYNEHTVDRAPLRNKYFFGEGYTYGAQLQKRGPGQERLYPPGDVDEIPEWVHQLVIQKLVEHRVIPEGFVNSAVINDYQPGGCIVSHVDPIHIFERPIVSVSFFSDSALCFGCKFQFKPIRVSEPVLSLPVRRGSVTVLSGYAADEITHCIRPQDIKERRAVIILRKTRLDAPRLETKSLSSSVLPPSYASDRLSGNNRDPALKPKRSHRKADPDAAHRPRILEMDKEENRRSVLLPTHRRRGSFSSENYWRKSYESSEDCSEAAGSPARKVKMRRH

[2] = molecular target: T1, RNA demethylase ALKBH5; test: Inhibition of ALKBH5 (66 to 292 residues) (unknown origin) extracted from Escherichia coli BL21 (DE3) cells using m6A ssDNA as substrate measured after 2 hrs by fluorescence polarization assay
Target sequence in this assay (Q6P6C2 whole entry, the tested form may be a part): as above

[3] = molecular target: T1, RNA demethylase ALKBH5; test: Inhibition of ALKBH5 (66 to 292 residues) (unknown origin) extracted from Escherichia coli BL21 (DE3) cells using m6A ssDNA as substrate measured after 1 hrs by fluorescence polarization assay
Target sequence in this assay (Q6P6C2 whole entry, the tested form may be a part): as above

[4] = molecular target: T1, RNA demethylase ALKBH5; test: Inhibition of ALKBH5 (66 to 292 residues) (unknown origin) extracted from Escherichia coli BL21 (DE3) cells using m6A ssDNA as substrate measured immediately by fluorescence polarization assay
Target sequence in this assay (Q6P6C2 whole entry, the tested form may be a part): as above

[5] = molecular target: T1, RNA demethylase ALKBH5; test: Inhibition of ALKBH5 (66 to 292 residues) (unknown origin) extracted from Escherichia coli BL21 (DE3) cells using m6A ssDNA as substrate incubated for 2 hrs by TBE-PAGE based restriction enzyme digestion assay
Target sequence in this assay (Q6P6C2 2-394 limits assumed): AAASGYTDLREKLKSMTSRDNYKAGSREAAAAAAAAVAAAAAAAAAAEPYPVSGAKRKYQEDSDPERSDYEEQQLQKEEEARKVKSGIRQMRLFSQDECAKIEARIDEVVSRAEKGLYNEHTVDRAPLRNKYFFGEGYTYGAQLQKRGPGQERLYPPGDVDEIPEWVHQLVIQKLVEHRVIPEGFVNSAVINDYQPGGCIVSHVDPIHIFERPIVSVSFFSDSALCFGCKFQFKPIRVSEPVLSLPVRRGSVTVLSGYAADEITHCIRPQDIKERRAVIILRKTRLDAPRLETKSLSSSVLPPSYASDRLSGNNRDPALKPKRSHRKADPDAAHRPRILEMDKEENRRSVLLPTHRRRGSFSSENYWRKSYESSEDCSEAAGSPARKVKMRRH

[6] = molecular target: T1, RNA demethylase ALKBH5; test: Binding affinity to ALKBH5 (66 to 292 residues) (unknown origin) extracted from Escherichia coli BL21 (DE3) cells assessed as dissociation constant incubated for 4 hrs by MST analysis
Target sequence in this assay (Q6P6C2 whole entry, the tested form may be a part): as the sequence (Q6P6C2 whole entry, the tested form may be a part) above

[7] = molecular target: T1, RNA demethylase ALKBH5; test: Inhibition of ALKBH5 (66 to 292 residues) (unknown origin) extracted from Escherichia coli BL21 (DE3) cells using m6A ssDNA as substrate at 1.25 to 10 uM incubated for 2 hrs in presence of 2-OG by TBE-PAGE based restriction enzyme digestion assay; settings: dose 1.25-10 µM
Target sequence in this assay (Q6P6C2 2-394 limits assumed): as the sequence (Q6P6C2 2-394 limits assumed) above

[8] = molecular target: T1, RNA demethylase ALKBH5; test: Binding affinity to ALKBH5 (66 to 292 residues) (unknown origin) extracted from Escherichia coli BL21 (DE3) cells assessed as dissociation constant incubated for 1 hrs by MST analysis
Target sequence in this assay (Q6P6C2 whole entry, the tested form may be a part): as the sequence (Q6P6C2 whole entry, the tested form may be a part) above

[9] = molecular target: T1, RNA demethylase ALKBH5; test: Binding affinity to ALKBH5 (66 to 292 residues) (unknown origin) extracted from Escherichia coli BL21 (DE3) cells assessed as dissociation constant incubated for 3 hrs by MST analysis
[10] = molecular target: T1, RNA demethylase ALKBH5; test: Binding affinity to ALKBH5 (66 to 292 residues) (unknown origin) extracted from Escherichia coli BL21 (DE3) cells assessed as dissociation constant incubated for 1.5 hrs by MST analysis
[11] = molecular target: T1, RNA demethylase ALKBH5; test: Inhibition of ALKBH5 (66 to 292 residues) (unknown origin) demethylase activity extracted from Escherichia coli BL21 (DE3) cells at 200 uM preincubated for 3 hrs and measured after compound washout by small molecule dilution method
Target sequence in this assay (Q6P6C2 2-394 limits assumed): as the sequence (Q6P6C2 2-394 limits assumed) above

[12] = molecular target: T1, RNA demethylase ALKBH5; test: Binding affinity to ALKBH5 (66 to 292 residues) (unknown origin) extracted from Escherichia coli BL21 (DE3) cells assessed as dissociation constant incubated for 5 hrs by MST analysis

SMILES: O=C(O)c1ccnc(C(=O)NS(=O)(=O)c2ccccc2C(F)(F)F)c1
- IC50 [1]: > 200 µM

SMILES: O=Cc1cc(S(=O)(=O)NC(=O)c2cc(C(=O)O)ccn2)ccc1O
- IC50 [2]: 0.45 µM
- IC50 [3]: 0.55 µM
- IC50 [4]: 3.4 µM

SMILES: O=C(O)c1ccnc(C(=O)NCc2ccccc2[N+](=O)[O-])c1
- IC50 [1]: > 200 µM

SMILES: CN(C(=O)c1cc(C(=O)O)ccn1)S(=O)(=O)c1ccccc1[N+](=O)[O-]
- IC50 [1]: > 200 µM

SMILES: C=CC(=O)Nc1ccccc1S(=O)(=O)NC(=O)c1cc(C(=O)O)ccn1
- IC50 [2]: 19.2 µM
- IC50 [3]: 21.6 µM
- IC50 [4]: 21.2 µM

SMILES: O=C(CCl)Nc1cccc(S(=O)(=O)NC(=O)c2cc(C(=O)O)ccn2)c1
- IC50 [2]: 10.4 µM
- IC50 [3]: 15 µM
- IC50 [4]: 30.6 µM

SMILES: N#Cc1cccc(S(=O)(=O)NC(=O)c2cc(C(=O)O)ccn2)c1
- IC50 [1]: > 200 µM

SMILES: CC(=O)c1cc(S(=O)(=O)NC(=O)c2cc(C(=O)O)ccn2)ccc1O
- IC50 [2]: 4.38 µM
- IC50 [3]: 6.5 µM
- IC50 [4]: 14.8 µM

SMILES: C=CC(=O)Nc1cccc(S(=O)(=O)NC(=O)c2cc(C(=O)O)ccn2)c1
- IC50 [2]: 3.97 µM
- IC50 [3]: 5.32 µM
- IC50 [4]: 7.44 µM

SMILES: O=C(O)c1ccnc(C(=O)NS(=O)(=O)c2cccc(-c3ccccc3)c2)c1
- IC50 [1]: 15 µM

SMILES: O=C(O)c1ccnc(C(=O)NS(=O)(=O)c2ccccc2)c1
- IC50 [2]: 52.1 µM
- IC50 [1]: 56.8 µM
- IC50 [3]: 51.9 µM
- IC50 [4]: 64.9 µM

SMILES: O=C(O)c1ccnc(C(=O)NS(=O)(=O)c2cccc3ccccc23)c1
- inhibition [5]: Active
- Kd [6]: 42 µM
- inhibition [7]: inactive
- Kd [8]: 58.7 µM
- IC50 [1]: 12.7 µM
- Kd [9]: 63.9 µM
- Kd [10]: 52.2 µM
- inhibition [11]: inactive
- Kd [12]: 61.7 µM

SMILES: O=C(O)c1ccnc(C(=O)NS(=O)(=O)c2ccccc2-c2ccccc2)c1
- IC50 [1]: 82.1 µM

SMILES: O=C(CCl)Nc1ccccc1S(=O)(=O)NC(=O)c1cc(C(=O)O)ccn1
- IC50 [2]: 10.8 µM
- IC50 [3]: 12.5 µM
- IC50 [4]: 18.4 µM

SMILES: COc1ccc(S(=O)(=O)NC(=O)c2cc(C(=O)O)ccn2)cc1
- IC50 [1]: 19.1 µM

SMILES: COC(=O)c1ccnc(C(=O)NS(=O)(=O)c2ccccc2[N+](=O)[O-])c1
- IC50 [1]: > 200 µM

SMILES: O=C(O)c1ccnc(C(=O)NS(=O)(=O)c2ccc3ccccc3c2)c1
- IC50 [1]: 15.2 µM

SMILES: N#Cc1ccc(S(=O)(=O)NC(=O)c2cc(C(=O)O)ccn2)cc1
- IC50 [1]: 39.9 µM

SMILES: O=C(O)c1cccc(C(=O)NS(=O)(=O)c2ccccc2[N+](=O)[O-])c1
- IC50 [1]: > 200 µM

SMILES: CC(=O)c1cc(S(=O)(=O)NC(=O)c2cc(C(=O)O)ccn2)c2ccccc2c1O
- IC50 [2]: 5.52 µM
- IC50 [3]: 5.81 µM
- IC50 [4]: 8.56 µM

SMILES: O=C(O)c1ccnc(C(=O)NS(=O)(=O)c2ccc(-c3ccccc3)cc2)c1
- IC50 [1]: 16.5 µM

SMILES: COc1ccccc1S(=O)(=O)NC(=O)c1cc(C(=O)O)ccn1
- IC50 [1]: > 200 µM

SMILES: O=C(OCc1ccc(C(F)(F)F)cc1)c1ccc(-c2cc3ncc(C(=O)c4c(O)ccc([N+](=O)[O-])c4O)cn3n2)cc1
- IC50 [1]: 4.06 µM

SMILES: N#Cc1ccccc1S(=O)(=O)NC(=O)c1cc(C(=O)O)ccn1
- IC50 [1]: > 200 µM
